Experimental data taken from patent US10131652B2, “Pyrimidinyloxy benzene derivatives as herbicides” (E. I. DU PONT DE NEMOURS AND COMPANY, priority 2014, dated 2018).

Assays:
Type in all cases: in vivo
[1] = test system: Italian ryegrass (Lolium multiflorum); test: Test B pre-/postemergence plant response
Summary of the method: (§1)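 Seeds in loam–sand blend given preemergence soil spray; separately, plants at one- to two-leaf stage (2–10 cm) sprayed postemergence, compounds in non-phytotoxic solvent with surfactant. Injury rated visually versus untreated controls after ~10 days in greenhouse, 0 (no effect) to 100 (complete control).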

[2] = test system: barnyardgrass (Echinochloa crus-galli); test: Test B pre-/postemergence plant response
Summary of the method: as §1

corn (Zea mays) = test: Test B pre-/postemergence plant response
Summary of the method: as §1

[3] = test system: giant foxtail (Setaria faberii); test: Test B pre-/postemergence plant response
Summary of the method: as §1

kochia (Kochia scoparia) = test: Test B pre-/postemergence plant response
Summary of the method: as §1

[4] = test system: pigweed (Amaranthus retroflexus); test: Test B pre-/postemergence plant response
Summary of the method: as §1

[5] = test system: ragweed (common ragweed, Ambrosia elatior); test: Test B pre-/postemergence plant response
Summary of the method: as §1

[6] = test system: wheat (Triticum aestivum); test: Test B pre-/postemergence plant response
Summary of the method: as §1

[7] = test system: blackgrass (Alopecurus myosuroides); test: Test B postemergence plant response
Summary of the method: (§2)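 Weeds grown in loam soil/sand pots were sprayed postemergence at 2 to 10 cm height, one- to two-leaf stage. After approximately 10 days in greenhouse, injury was rated visually against untreated controls on a 0 (no effect) to 100 (complete control) scale; dash means no test result.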

[8] = test system: galium (catchweed bedstraw, Galium aparine); test: Test B postemergence plant response
Summary of the method: as §2

[9] = test system: barnyardgrass (Echinochloa crus-galli); test: Test C flooded paddy test plant response; details: Flood, 250 g ai/ha; scale of 0 to 100 where 0 is no effect and 100 is complete control; 13 to 15 days
Summary of the method: (§3)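 Readout is a visual 0–100 score (100 = complete control) versus controls at 13–15 days. Plants at 2-leaf stage, flooded to 3 cm, treated through paddy water.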

[10] = test system: ducksalad (Heteranthera limosa); test: Test C flooded paddy test plant response; details: Flood, 250 g ai/ha; scale of 0 to 100 where 0 is no effect and 100 is complete control; 13 to 15 days
Summary of the method: as §3

rice (Oryza sativa) = test: Test C flooded paddy test plant response; details: Flood, 250 g ai/ha; scale of 0 to 100 where 0 is no effect and 100 is complete control; 13 to 15 days
Summary of the method: as §3

[11] = test system: small-flower umbrella sedge (Cyperus difformis); test: Test C flooded paddy test plant response; details: Flood, 250 g ai/ha; scale of 0 to 100 where 0 is no effect and 100 is complete control; 13 to 15 days
Summary of the method: as §3

[12] = 125 g ai/ha, postemergence, 0 to 100 scale, 0 no effect, 100 complete control
[13] = Postemergence, 500 g ai/ha, 0 to 100 scale (0 no effect, 100 complete control)
[14] = Preemergence, 125 g ai/ha, 0 to 100 scale (0 no effect, 100 complete control)
[15] = Preemergence, 500 g ai/ha, 0 to 100 scale where 0 is no effect and 100 is complete control
[16] = Postemergence, 1000 g ai/ha, 0 to 100 scale (0 no effect, 100 complete control)
[17] = Preemergence, 1000 g ai/ha, 0 to 100 scale (0 no effect, 100 complete control)
[18] = 31 g ai/ha, Preemergence, 0 to 100 scale where 0 is no effect and 100 is complete control
[19] = Postemergence, 31 g ai/ha, 0 to 100 scale (0 no effect, 100 complete control)

SMILES | Plant response rating, Ryegrass, Italian [1, 12] | Ryegrass, Italian plant response rating [1, 14] | Plant response rating, Barnyardgrass [2, 12] | Barnyardgrass plant response rating [2, 14] | Plant response rating, Corn (corn (Zea mays); [12]) | Plant response rating, Foxtail, Giant [3, 12] | Foxtail, Giant plant response rating [3, 14] | Plant response rating, Kochia (kochia (Kochia scoparia); [12]) | Kochia plant response rating (kochia (Kochia scoparia); [14]) | Plant response rating, Pigweed [4, 12] | Pigweed plant response rating [4, 14] | Plant response rating, Ragweed [5, 12] | Ragweed plant response rating [5, 14] | Plant response rating, Wheat [6, 12] | Plant response rating, Blackgrass [7, 12] | Plant response rating, Galium [8, 12] | Barnyardgrass plant response rating [9] | Ducksalad plant response rating [10] | Rice plant response rating (rice (Oryza sativa)) | Sedge, Umbrella plant response rating [11] | other results
Cc1c(-c2ccccc2Oc2ncc(Cl)cn2)noc1C(F)(F)F [Compound 167] | 0 | 0 | 0 | 0 | 0 | 0 | 0 | 10 | 0 | 10 | 0 | 0 | 0 | 10 | 0 | 10 | 0 | 0 | 0 | 0 | Plant response rating, Ryegrass, Italian [1, 13]: 0; Plant response rating, Ryegrass, Italian [1, 15]: 0; Plant response rating, Barnyardgrass [2, 13]: 10; Plant response rating, Barnyardgrass [2, 15]: 10; Plant response rating, Corn (corn (Zea mays); [13]): 20; Plant response rating, Foxtail, Giant [3, 13]: 10; Plant response rating, Foxtail, Giant [3, 15]: 30; Plant response rating, Kochia (kochia (Kochia scoparia); [13]): 60; Plant response rating, Kochia (kochia (Kochia scoparia); [15]): 30; Plant response rating, Pigweed [4, 13]: 70; Plant response rating, Pigweed [4, 15]: 20; Plant response rating, Ragweed [5, 13]: 0; Plant response rating, Ragweed [5, 15]: 10; Plant response rating, Wheat [6, 13]: 20; Plant response rating, Blackgrass [7, 13]: 10; Plant response rating, Galium [8, 13]: 60
Cc1cc(-c2ccccc2Oc2ncc(Cl)cn2)sn1 [Compound 171] |  |  |  |  |  |  |  |  |  |  |  |  |  |  |  |  | 0 | 0 | 0 | 0 | Plant response rating, Ryegrass, Italian [1, 16]: 10; Plant response rating, Ryegrass, Italian [1, 17]: 10; Plant response rating, Barnyardgrass [2, 16]: 30; Plant response rating, Barnyardgrass [2, 17]: 70; Plant response rating, Corn (corn (Zea mays); [16]): 10; Plant response rating, Foxtail, Giant [3, 16]: 100; Plant response rating, Foxtail, Giant [3, 17]: 100; Plant response rating, Kochia (kochia (Kochia scoparia); [16]): 100; Plant response rating, Kochia (kochia (Kochia scoparia); [17]): 90; Plant response rating, Pigweed [4, 16]: 100; Plant response rating, Pigweed [4, 17]: 100; Plant response rating, Ragweed [5, 16]: 30; Plant response rating, Ragweed [5, 17]: 0; Plant response rating, Wheat [6, 16]: 30; Plant response rating, Blackgrass [7, 16]: 80; Plant response rating, Galium [8, 16]: 100
Cc1cnc(Oc2ccccc2-c2cc(C(C)(F)F)on2)nc1 [Compound 173] | 20 | 20 | 70 | 90 | 40 | 90 | 100 | 100 | 100 | 80 | 100 | 60 | 70 | 0 | 70 | 90 | 0 | 80 | 0 | 60 | Plant response rating, Ryegrass, Italian [1, 18]: 0; Plant response rating, Ryegrass, Italian [1, 19]: 0; Plant response rating, Barnyardgrass [2, 18]: 60; Plant response rating, Barnyardgrass [2, 19]: 30; Plant response rating, Corn (corn (Zea mays); [19]): 10; Plant response rating, Foxtail, Giant [3, 18]: 50; Plant response rating, Foxtail, Giant [3, 19]: 30; Plant response rating, Kochia (kochia (Kochia scoparia); [18]): 70; Plant response rating, Kochia (kochia (Kochia scoparia); [19]): 70; Plant response rating, Pigweed [4, 18]: 80; Plant response rating, Pigweed [4, 19]: 60; Plant response rating, Ragweed [5, 18]: 10; Plant response rating, Ragweed [5, 19]: 40; Plant response rating, Wheat [6, 19]: 0; Plant response rating, Blackgrass [7, 19]: 30; Plant response rating, Galium [8, 19]: 50
Clc1cnc(Oc2ccccc2-c2cc(Cl)ccn2)nc1 [Compound 174] | 0 | 0 | 10 | 0 | 0 | 0 | 40 | 70 | 0 | 50 | 80 | 30 | 0 | 0 | 50 | 70 | 0 | 0 | 0 | 0 | Plant response rating, Ryegrass, Italian [1, 18]: 0; Plant response rating, Ryegrass, Italian [1, 19]: 0; Plant response rating, Barnyardgrass [2, 18]: 0; Plant response rating, Barnyardgrass [2, 19]: 0; Plant response rating, Corn (corn (Zea mays); [19]): 0; Plant response rating, Foxtail, Giant [3, 18]: 0; Plant response rating, Foxtail, Giant [3, 19]: 0; Plant response rating, Kochia (kochia (Kochia scoparia); [19]): 60; Plant response rating, Pigweed [4, 18]: 60; Plant response rating, Pigweed [4, 19]: 50; Plant response rating, Ragweed [5, 18]: 0; Plant response rating, Ragweed [5, 19]: 20; Plant response rating, Wheat [6, 19]: 0; Plant response rating, Blackgrass [7, 19]: 40; Plant response rating, Galium [8, 19]: 60
Fc1ccnc(-c2ccccc2Oc2ncc(Cl)cn2)c1 [Compound 175] | 0 | 0 | 10 | 0 | 0 | 0 | 0 | 30 | 0 | 60 | 70 | 30 | 0 | 0 | 0 | 40 | 0 | 0 | 0 | 0 | Plant response rating, Ryegrass, Italian [1, 18]: 0; Plant response rating, Ryegrass, Italian [1, 19]: 0; Plant response rating, Barnyardgrass [2, 18]: 0; Plant response rating, Barnyardgrass [2, 19]: 0; Plant response rating, Corn (corn (Zea mays); [19]): 0; Plant response rating, Foxtail, Giant [3, 18]: 0; Plant response rating, Foxtail, Giant [3, 19]: 0; Plant response rating, Kochia (kochia (Kochia scoparia); [18]): 0; Plant response rating, Kochia (kochia (Kochia scoparia); [19]): 0; Plant response rating, Pigweed [4, 18]: 0; Plant response rating, Pigweed [4, 19]: 50; Plant response rating, Ragweed [5, 18]: 0; Plant response rating, Ragweed [5, 19]: 20; Plant response rating, Wheat [6, 19]: 0; Plant response rating, Blackgrass [7, 19]: 0; Plant response rating, Galium [8, 19]: 20
FC(F)(F)COc1cc(-c2ccccc2Oc2ncc(Cl)cn2)on1 [Compound 176] | 10 | 10 | 30 | 50 | 30 | 50 | 90 | 100 | 20 | 100 | 90 | 20 | 0 | 0 | 30 | 90 | 0 | 75 | 0 | 30 | Plant response rating, Ryegrass, Italian [1, 18]: 0; Plant response rating, Ryegrass, Italian [1, 19]: 0; Plant response rating, Barnyardgrass [2, 18]: 10; Plant response rating, Barnyardgrass [2, 19]: 10; Plant response rating, Corn (corn (Zea mays); [19]): 10; Plant response rating, Foxtail, Giant [3, 18]: 60; Plant response rating, Foxtail, Giant [3, 19]: 20; Plant response rating, Kochia (kochia (Kochia scoparia); [18]): 0; Plant response rating, Kochia (kochia (Kochia scoparia); [19]): 30; Plant response rating, Pigweed [4, 18]: 30; Plant response rating, Pigweed [4, 19]: 90; Plant response rating, Ragweed [5, 18]: 0; Plant response rating, Ragweed [5, 19]: 10; Plant response rating, Wheat [6, 19]: 0; Plant response rating, Blackgrass [7, 19]: 0; Plant response rating, Galium [8, 19]: 30
